Experimental data as given in patent US10781224B2, “Bis(oxymethyl)phosphinic acid and biogenic metal salts thereof as regulators of plant growth and development” (priority 2016, dated 2020).

Key:
[1] = test system: corn (Krasnodar 385 MV variety); test: Corn seed treatment with BHMPA salts: germinating power; assay type: in vivo
Description: (§1) Experimental versions—soaking seeds in BHMPA solutions and solutions of BHMPA Ca, Mg, Na, Co, Mn, Cu, and Zn salts at 1·10^−6-1·10^−12% concentrations (doses). The studies were conducted in laboratory in Petri dishes; seed bed—two layers of filter paper. 50 seeds soaked in water (control) and in the solutions of the tested compounds (experimental) were placed into each dish. Wheat, corn, and rice seeds were exposed for one hour.
(§2) Seed germination energy and rate were calculated in percent as an arithmetic mean of the four experimental results (germination energy on the 4th day, wheat germination on the 8th day, rice and corn germination—on the 7th day). Germination was determined based on the germinating power indicators (length of the roots and sprouts and their wet and dry mass per 100 shoots).
(§3) The effect of pre-sowing seed treatment with the claimed BHMPA salts of biogenic metals was studied on winter wheat (Vershin variety), corn (Krasnodar 385 MV variety), and rice (Diamant variety).
The above data describe the seed viability only at the initial stage of germination, while the germination ability at the later stage of germination is defined by the initial germinating power. The method for the determination of the germinating power comprises measuring the height of the sprouts and primary roots, as well as the biomass and the dry mass thereof per 100 seedlings. [M. A. Kartuzova. Initial Germinating Power as Method of Biological Assessment of Seed Quality. Selection and Seed Farming, #2, 1953].

[2] = test system: rice (Diamant variety); test: Rice seed treatment with BHMPA salts: germination energy and germination rate; assay type: in vivo
Description: Control—Soaking Seeds in Water;
as §1
Analysis was conducted according to the government standards GOST 12038-84 “Crop seeds. Technical conditions for determining the germination energy and germination rate”, GOST 12044-93 “Crop seeds. Methods for determining disease contamination.”
as §2, §3

[3] = corn seeds, solution concentration 1 · 10^−9%, cobalt salt of BHMPA
[4] = corn seeds, solution concentration 1 · 10^−10%, cobalt salt of BHMPA
[5] = corn seeds, solution concentration 1 · 10^−11%, cobalt salt of BHMPA
[6] = corn seeds, solution concentration 1 · 10^−12%, cobalt salt of BHMPA
[7] = rice seed treatment, solution 1 · 10^−9%
[8] = seed treatment, concentration 1 · 10^−6%
[9] = seed treatment, concentration 1 · 10^−7%
[10] = seed treatment, concentration 1 · 10^−8%
[11] = seed treatment, concentration 1 · 10^−9%
[12] = seed treatment, concentration 1 · 10^−10%
[13] = seed treatment, concentration 1 · 10^−11%
[14] = seed treatment, concentration 1 · 10^−12%

SMILES: O.O.O=P([O-])(CO)CO.O=P([O-])(CO)CO.[Co+2] [Co-salt, Cobalt BHMPA Salt]
- Mass, wet, sprout [1, 3]: 7.58 g/100 plantlings
- Mass, wet, sprout, + % to control [1, 3]: 22%
- Length, root [1, 4]: 4.9 cm
- Length, root, + % to control [1, 4]: 4%
- Length, sprout [1, 4]: 3.3 cm
- Length, sprout, + % to control [1, 4]: 10%
- Mass, dry, root [1, 4]: 1.29 g/100 plantlings
- Mass, dry, root, + % to control [1, 4]: 3%
- Mass, dry, sprout [1, 4]: 1.03 g/100 plantlings
- Mass, dry, sprout, + % to control [1, 4]: 6%
- Mass, wet, root [1, 4]: 9.80 g/100 plantlings
- Mass, wet, root, + % to control [1, 4]: 9%
- Mass, wet, sprout [1, 4]: 6.75 g/100 plantlings
- Mass, wet, sprout, + % to control [1, 4]: 8.5%
- Length, root [1, 5]: 4.5 cm
- Length, root, + % to control [1, 5]: −4%
- Length, sprout [1, 5]: 3.0 cm
- Length, sprout, + % to control [1, 5]: 0%
- Mass, dry, root [1, 5]: 1.27 g/100 plantlings
- Mass, dry, root, + % to control [1, 5]: 2%
- Mass, dry, sprout [1, 5]: 0.98 g/100 plantlings
- Mass, dry, sprout, + % to control [1, 5]: 1%
- Mass, wet, root [1, 5]: 9.62 g/100 plantlings
- Mass, wet, root, + % to control [1, 5]: 7%
- Mass, wet, sprout [1, 5]: 6.41 g/100 plantlings
- Mass, wet, sprout, + % to control [1, 5]: 3%
- Length, root [1, 6]: 4.2 cm
- Length, root, + % to control [1, 6]: −11%
- Length, sprout [1, 6]: 2.9 cm
- Length, sprout, + % to control [1, 6]: −3%
- Mass, dry, root [1, 6]: 1.22 g/100 plantlings
- Mass, dry, root, + % to control [1, 6]: −2%
- Mass, dry, sprout [1, 6]: 0.98 g/100 plantlings
- Mass, dry, sprout, + % to control [1, 6]: 1%
- Mass, wet, root [1, 6]: 9.28 g/100 plantlings
- Mass, wet, root, + % to control [1, 6]: 3%
- Mass, wet, sprout [1, 6]: 6.23 g/100 plantlings
- Mass, wet, sprout, + % to control [1, 6]: 0%
- Length, root, + % to control ([1]; corn, 1·10^−7% solution): 32%
- Length, sprout, + % to control ([1]; corn, 1·10^−7% solution): 27%
- Mass, dry, root, + % to control ([1]; corn, 1·10^−7% solution): 15%
- Mass, dry, sprout, + % to control ([1]; corn, 1·10^−7% solution): 25%
- Mass, wet, root, + % to control ([1]; corn, 1·10^−7% solution): 20%
- Mass, wet, sprout, + % to control ([1]; corn, 1·10^−7% solution): 60%
- germination intensity vs control ([1]; corn, 1·10^−11% and 1·10^−12% solutions): no increase in the germination intensity
- Germination energy, % [2, 7]: 87.5%
- Germination rate, % [2, 7]: 94.5%
- Germination energy ([2]; rice, 1·10^−9% solution): 86.3%
- Germination rate ([2]; rice, 1·10^−9% solution): 93.7%
- Germination energy [2, 8]: 80.7%
- Germination rate [2, 8]: 84.0%
- Germination energy [2, 9]: 83.0%
- Germination rate [2, 9]: 87.0%
- Germination energy [2, 10]: 84.0%
- Germination rate [2, 10]: 90.3%
- Germination energy [2, 11]: 86.3%
- Germination rate [2, 11]: 93.7%
- Germination energy [2, 12]: 85.7%
- Germination rate [2, 12]: 91.3%
- Germination energy [2, 13]: 84.0%
- Germination rate [2, 13]: 88.0%
- Germination energy [2, 14]: 81.3%
- Germination rate [2, 14]: 85.3%
